Experimental findings from patent JP2019019068A, “アリールアゾール化合物および有害生物防除剤” (Nippon Soda Co Ltd, priority 2017, dated 2019) are described below.

For experiment [1], the system named is diamondback moth (コナガ) 2nd instar larvae. Kind of experiment: Test Example 1: efficacy test against diamondback moth (コナガ), cabbage leaf dip. The experiment is classed as in vivo. The note with it: Plutella xylostella, foliar, 72 h, cabbage leaf dipped 30 s, 25 °C, 60% humidity, 3 days after release, 2 replicates, read-out: insecticidal rate.
Experiment [2] concerns striped flea beetle (キスジノミハムシ) adults. Nature of the experiment: Test Example 2: efficacy test against striped flea beetle (キスジノミハムシ), spray on bok choy seedlings. The experiment is classed as in vivo. Conditions: Phyllotreta striolata, 168 h, sprayed on bok choy seedlings, 25 °C, 65% humidity, 7 days after release, 2 replicates, read-out: insecticidal rate.

As to `CCS(=O)(=O)c1cc(/C=N/OCC(F)(F)F)cnc1-c1ncc(C=C(Cl)C(F)(F)F)n1C` [化合物番号1, (E)-6-(5-(2-chloro-3,3,3-trifluoroprop-1-en-1-yl)-1-methyl-1H-imidazol-2-yl)-5-(ethylsulfonyl)nicotinaldehyde O-(2,2,2-trifluoroethyl) oxime], the mortality at 125 ppm in experiment [1] and in experiment [2] was not below 80% throughout.
